Data on nine molecules can be found in patent US20160354300A1, “Low Viscosity Hair Care Composition” (The Procter & Gamble Company, priority 2015, published 2016).

Data set [1] is described as follows: Kinematic viscosity at 40 C of surfactant base formulation with added agent (Cannon viscometer). The format is physicochemical. The settings on record: for Lowest viscosity achieved (cSt): Table 1, base formulation 24% sodium undecyl sulfate, 6% lauramidopropyl betaine, 1.6% perfume, agent at 2%, 4%, 6%, 8%, 40° C.; for Kinematic viscosity at 40 C. [cSt], 2% oil: agent added at 2% to base formulation; for Kinematic viscosity at 40 C. [cSt], 4% oil: agent added at 4% to base formulation; for Kinematic viscosity at 40 C. [cSt], 6% oil: agent added at 6% to base formulation; for Kinematic viscosity at 40 C. [cSt], 8% oil: agent added at 8% to base formulation. An excerpt:
Referring to Tables 1 and 2, the base formulations were made by mixing 1.6% perfume, 24% sodium undecyl sulfate (CAS#1072-24-8) active, 6% lauramidopropyl betaine (CAS#4292-10-8) active and 60.4% deionized water which leaves 8% unfilled for the addition of a viscosity reducing agent (the balance being filled in by distilled water). For all compositions, the surfactant, water and additives including viscosity reducing agents were expected to be in a single phase.
The agents from Tables 1 and 2 were added to the base formulation at a percentage of 2%, 4%, 6%, and 8% into the above surfactant solution. The subsequent formulations were vortexed and put into oven at 60° C. overnight to form homogeneous solution. The viscosities of the formulations were measured with calibrated viscometers (Size 200/350/450) from Cannon Instrument Company (2139 High Tech Road, State College, Pa., USA, 16803).
After the equilibration, the formulations were drawn to reach the starting mark with a rubber suction bulb and the flow time between the starting mark and end mark was recorded for calculation. Each formulation was measured three times to calculate average and standard deviation. Between samples, viscometer was cleaned with water and acetone to rinse off residual.
Viscosity values were calculated based on the equation:
Viscosity (mm^2/s·(cSt))=Time (s)*Constant (mm^2/s^2·(cSt/s))
The time in the above equation is the flow time recorded in the experiment and the constant numbers for each calibrated viscometer were obtained from the manuals. […]
The viscosities of the formulations are measured with calibrated viscometers (Size 200/350/450) from Cannon Instrument Company (2139 High Tech Road, State College, Pa., USA, 16803). Prior to the measurement, the formulations are equilibrated in the viscometer reservoir for 30 min at 40° C. in water bath to ensure a homogeneous temperature is reached in the system. […]

Data set [2] is described as follows: Visual cloudiness of surfactant formulation with added agent after 20:1 dilution with water. Also on record: key: Samples that appeared cloudy (turbid) within less than a day were noted as cloudy (“Yes”); Samples that did not appear cloudy (turbid) within less than a day were noted as not cloudy (“No”). The format is physicochemical. The settings on record: 0.5 g formula, 10 ml deionized water; for Cloudy at 1:20 dilution at 2%, 4%, and/or 6%: Table 3, visual, within less than a day; for Added at 2%: cloudy at 20:1 dilution: agent at 2%; for Added at 4%: cloudy at 20:1 dilution: agent at 4%; for Added at 6%: cloudy at 20:1 dilution: agent at 6%; for Added at 8%: cloudy at 20:1 dilution: agent at 8%. The protocol: Now referring to Tables 3 and 4, the following surfactant formulations were made by mixing 1.6% perfume, 24% sodium undecyl sulfate (CAS#1072-24-8) active, 6% lauramidopropyl betaine (CAS#4292-10-8) active, and 60.4% deionized water which leaves 8% unfilled for the addition of the listed agents (the balance being filled in by distilled water). The agents were added at a percentage of 2%, 4%, 6%, and 8% into the above surfactant formulation. The resulting formulations were vortexed and put into oven at 60° C. overnight to form homogeneous solution. For all formulations, the surfactant, water and additives, including the added agents, were expected to be in a single phase.
The resulting formulations were weighed out in a scintillation vial combined with 10 ml of water to achieve a representative dilution during use: 0.5 g formula, 10 ml deionized water for 20:1 dilution. After the combination of the ingredients, the vial was vigorously shaken by hand and the samples were visually inspected by looking at the solution against a dark background. Samples that appeared cloudy (turbid) within less than a day were noted as cloudy (“Yes”). […] Samples that appeared cloudy at the 20:1 dilution for any of the 2%, 4% or 6% concentration of oil may be most desirable by requiring a limited amount of the agent to be added, limiting cost and trade-offs associated with higher levels.
The appearance of a cloudy formulation at 1:20 dilution at 2%, 4%, and/or 6% can signal improved deposition of surfactant soluble active agents during consumer use.

On to `CC(=O)OCCC(C)CCC=C(C)C` (stereo not shown) [Citronellyl Acetate], for which, in data set [1], the “Lowest viscosity achieved (cSt)” value is 363 cSt and the “Kinematic viscosity at 40 C. [cSt], 2% oil” value (“Kinematic viscosity … 2% oil” below) is reported as 362.7 cSt. Moreover, in data set [2], the “Cloudy at 1:20 dilution at 2%, 4%, and/or 6%” value (from here on “Cloudy … and/or 6%”) is “No” and the “Added at 2%: cloudy at 20:1 dilution” value was “No”.
`CCCCCCC1C(=O)CCC1C(=O)OC` (stereo not shown) [Dihyro Iso Jasmonate]: in data set [1], the “Lowest viscosity achieved (cSt)” value was found to be 119 cSt; the “Kinematic viscosity … 2% oil” value was 334.9 cSt; the “Kinematic viscosity at 40 C. [cSt], 4% oil” value (“Kinematic viscosity … 4% oil” for short) is on record as 119.1 cSt. In addition, in data set [2], the “Cloudy … and/or 6%” value was “No” and the “Added at 2%: cloudy at 20:1 dilution” value was “No”.
On to `CC1=CC=C(C(C)C)CC1` [alpha-Terpinene], for which, in data set [1], the “Lowest viscosity achieved (cSt)” value is 42 cSt; the “Kinematic viscosity … 2% oil” value was 324.4 cSt; the “Kinematic viscosity … 4% oil” value amounted to 96.0 cSt; the “Kinematic viscosity at 40 C. [cSt], 6% oil” value (“Kinematic viscosity … 6% oil” below) turned out to be 41.5 cSt. For the same molecule, the “Kinematic viscosity at 40 C. [cSt], 8% oil” value in data set [1] was 46.7 cSt. In data set [2], the “Cloudy … and/or 6%” value is reported as “Yes”; the “Added at 2%: cloudy at 20:1 dilution” value is “No”; the “Added at 4%: cloudy at 20:1 dilution” value is “No”; the “Added at 6%: cloudy at 20:1 dilution” value is reported as “Yes”. In data set [2], the “Added at 8%: cloudy at 20:1 dilution” value is on record as “Yes”.
For `CC1=CCC(C(C)C)=CC1` [gamma-Terpinene], in data set [1], the “Lowest viscosity achieved (cSt)” value is 32 cSt; the “Kinematic viscosity … 2% oil” value came to 238.0 cSt; the “Kinematic viscosity … 4% oil” value stood at 65.0 cSt; the “Kinematic viscosity … 6% oil” value stood at 31.7 cSt. In data set [2], the “Cloudy … and/or 6%” value is listed as “Yes”; the “Added at 2%: cloudy at 20:1 dilution” value is listed as “No”; the “Added at 4%: cloudy at 20:1 dilution” value is recorded as “No”; the “Added at 6%: cloudy at 20:1 dilution” value is on record as “Yes”. The “Added at 8%: cloudy at 20:1 dilution” value in data set [2] is listed as “Yes”.
In the case of `CC12CCC(CC1)C(C)(C)O2` [Eucalyptol], in data set [1], the “Lowest viscosity achieved (cSt)” value is given as 203 cSt; the “Kinematic viscosity … 2% oil” value is recorded as 527.3 cSt; the “Kinematic viscosity … 4% oil” value is reported as 292.9 cSt; the “Kinematic viscosity … 6% oil” value was determined as 203.1 cSt. Also, in data set [2], the “Cloudy … and/or 6%” value is “No”; the “Added at 2%: cloudy at 20:1 dilution” value is given as “No”; the “Added at 4%: cloudy at 20:1 dilution” value was “No”; the “Added at 6%: cloudy at 20:1 dilution” value is “No”.
Take `CC(C)CCOC(=O)c1ccccc1O` [Isoamyl Salicylate]: in data set [1], the “Lowest viscosity achieved (cSt)” value was found to be 193 cSt; the “Kinematic viscosity … 2% oil” value came to 460.3 cSt; the “Kinematic viscosity … 4% oil” value was 193.2 cSt. In data set [2], the “Cloudy … and/or 6%” value was “Yes”; the “Added at 2%: cloudy at 20:1 dilution” value is on record as “No”; the “Added at 4%: cloudy at 20:1 dilution” value is recorded as “Yes”.
Take `CC(=O)OCCC(C)CCCC(C)C` (stereo not shown) [3,7-Dimethyloctyl Acetate]: in data set [1], the “Lowest viscosity achieved (cSt)” value is on record as 446 cSt and the “Kinematic viscosity … 2% oil” value stood at 445.7 cSt. Moreover, in data set [2], the “Cloudy … and/or 6%” value was “No” and the “Added at 2%: cloudy at 20:1 dilution” value is recorded as “No”.
In the case of `CC(C)COC(=O)c1ccccc1O` [Iso Butyl Salicylate], in data set [1], the “Lowest viscosity achieved (cSt)” value is listed as 409 cSt and the “Kinematic viscosity … 2% oil” value was found to be 408.7 cSt. Also, in data set [2], the “Cloudy … and/or 6%” value is recorded as “No”; the “Added at 2%: cloudy at 20:1 dilution” value is listed as “No”; the “Added at 4%: cloudy at 20:1 dilution” value was “No”.
For `CC(C)=CCC/C(C)=C/COC(=O)Cc1ccccc1` [Geranyl Phenyl Acetate], in data set [1], the “Lowest viscosity achieved (cSt)” value is given as 34 cSt; the “Kinematic viscosity … 2% oil” value stood at 224.0 cSt; the “Kinematic viscosity … 4% oil” value turned out to be 76.0 cSt; the “Kinematic viscosity … 6% oil” value is reported as 34.3 cSt. The “Kinematic viscosity at 40 C. [cSt], 8% oil” value in data set [1] is reported as 36.6 cSt. Further, in data set [2], the “Cloudy … and/or 6%” value is given as “Yes”; the “Added at 2%: cloudy at 20:1 dilution” value was “Yes”; the “Added at 4%: cloudy at 20:1 dilution” value is listed as “Yes”; the “Added at 6%: cloudy at 20:1 dilution” value was “Yes”. Further, the “Added at 8%: cloudy at 20:1 dilution” value in data set [2] is reported as “Yes”.
